Experimental data reported in PubChem BioAssay (NCI).
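Exposure lasted 48 hours, with cells grown in 96-well plates and compounds tested at five concentrations. At the GI50, growth is halved. TGI: concentration producing complete growth inhibition.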

Tests used:
Test in all cases: NCI anticancer screen, dose series, 48 h
[1] = system: MALME-3M melanoma
[2] = system: OVCAR-4 ovarian
[3] = system: RPMI-8226 leukemia
[4] = system: TK-10 renal
[5] = system: OVCAR-3 ovarian
[6] = system: SK-MEL-28 melanoma
[7] = system: KM12 colon
[8] = system: SK-OV-3 ovarian
[9] = system: SF-268 CNS
[10] = system: MCF7 breast

Row | SMILES | TGI [1] [µM] | TGI [2] [µM] | TGI [3] [µM] | TGI [4] [µM] | TGI [5] [µM] | TGI [6] [µM] | TGI [7] [µM] | TGI [8] [µM] | TGI [9] [µM] | GI50 [2] [µM] | GI50 [3] [µM] | GI50 [4] [µM] | GI50 [5] [µM] | GI50 [6] [µM] | GI50 [10] [µM] | TGI [10] [µM] | GI50 [7] [µM] | GI50 [8] [µM] | GI50 [9] [µM]
1 | COC(=O)C1=C(\O)C[C@@]2(C)CC[C@@H](C(=O)OC)C2C/C=C\1C(=O)OC (stereo partly specified) | > 100 | > 100 | > 100 | > 100 | > 100 | > 100 | > 100 | > 100 | > 100 | – | – | – | – | – | – | – | – | – | –
2 | O=C1c2ccccc2C(=O)c2c1ccc1c2N=C(c2ccc(Br)cc2)CC(c2cccc3ccccc23)N1 (stereo unspecified) | > 100 | > 100 | > 100 | > 100 | > 100 | > 100 | > 100 | > 100 | > 100 | – | – | – | – | – | – | – | – | – | –
3 | CC1(C)CC(N2CCN(C3CC(C)(C)NC(C)(C)C3)CC2)CC(C)(C)N1 | – | > 100 | > 100 | > 100 | > 100 | > 100 | > 100 | > 100 | > 100 | – | – | – | – | – | – | – | – | – | –
4 | COc1cc(Cn2c(SCC(=O)Nc3ccc(Cl)cc3)nc3ccccc3c2=O)cc(OC)c1OC | – | 13.9 | > 100 | 7.67 | 31 | 50.9 | > 100 | 16.7 | 24.8 | 3.01 | 22.9 | 2.63 | 7.86 | 11.4 | 8.97 | 55.1 | 32.3 | 4.2 | 6.61
5 | COc1cc(/C=C/c2cc(O)c(C/C=C(\C)CC/C=C(\C)CO)c(O)c2)cc2c1O[C@]1(C)CC[C@@H](O)C(C)(C)[C@H]1C2 | – | > 100 | – | > 93.8 | > 70.2 | > 100 | > 100 | > 100 | > 100 | 32.5 | – | – | > 29.3 | > 58.3 | – | – | – | > 100 | –
6 | COc1c(C)c(O)c2c(c1C)OC(c1ccccc1)CC2=O (stereo unspecified) | 83.1 | > 100 | > 100 | > 100 | > 100 | > 100 | > 100 | > 100 | > 100 | – | – | – | – | – | – | – | – | – | –
7 | ClCCCCOC1CCCCO1 (stereo unspecified) | > 100 | > 100 | – | > 100 | > 100 | > 100 | > 100 | > 100 | > 100 | – | – | – | – | – | – | – | – | – | –
8 | NC(=O)c1cc([N+](=O)[O-])cc([N+](=O)[O-])c1 | > 100 | > 100 | > 100 | > 100 | > 100 | > 100 | > 100 | > 100 | > 100 | – | – | – | – | – | – | – | – | – | –
